In one assay the test system is Candida albicans. Put plainly: Antifungal activity against Candida albicans. It is filed as functional, organism-based.
The next assay relates to Cryptococcus neoformans. Put plainly: Antifungal activity against Cryptococcus neoformans. It is filed as functional, organism-based.
For assay [1], the system named is Trichophyton mentagrophytes. In words: Antifungal activity against Trichophyton mentagrophytes. The class given is functional, organism-based.
In the next assay the test system is Staphylococcus aureus. Put plainly: Antibacterial activity against Staphylococcus aureus. It is filed as functional.
The test system of a further assay is Aspergillus niger. In words: Antifungal activity against Aspergillus niger. The class given is functional, organism-based.
Another assay has as its system Escherichia coli. Put plainly: Antibacterial activity against Escherichia coli. It is filed as functional.
The next assay deals with Bacillus subtilis. In words: Antibacterial activity against Bacillus subtilis. It is filed as functional.
A further assay concerns Micrococcus luteus. Put plainly: Antibacterial activity against Micrococcus luteus. It is filed as functional.

Molecules are shown by their SMILES. In brackets after ≈: the same amount, converted by molar mass. A value given as a limit tells only on which side of the number the result lay.

A word on the IC50: it is the concentration at which inhibition is half-maximal. The MIC is the lowest concentration found to suppress growth. On to `O=C(O)/C(Cc1cc(Br)c(OCCC[n+]2ccccc2)c(Br)c1)=N/O`, for which the IC50 in the assay with Candida albicans is > 32 µg/mL; in the assay with Cryptococcus neoformans, > 32 µg/mL; in assay [1], > 32 µg/mL; with Aspergillus niger it was 32 µg/mL. Besides, the MIC against Staphylococcus aureus, against Escherichia coli, in the assay with Bacillus subtilis and in the assay with Micrococcus luteus was > 32 µg/mL throughout.

For the compound `NCCCOc1c(Br)cc(C/C(=N\O)C(=O)NCCC(=O)O)cc1Br`, the IC50 in the assay on Candida albicans is > 32 µg/mL; in the assay with Cryptococcus neoformans, 16 µg/mL (≈ 33.3 µM); in assay [1] it was > 32 µg/mL; in the assay with Aspergillus niger it was 32 µg/mL (≈ 66.5 µM). Moreover, the MIC in the assay with Staphylococcus aureus, with Escherichia coli, against Bacillus subtilis and in the assay on Micrococcus luteus was > 32 µg/mL throughout.

(Values after ChEMBL document CHEMBL3632467, “Tyrokeradines G and H, new bromotyrosine alkaloids from an Okinawan Verongid sponge” (Bioorg Med Chem Lett, 2015).)
